Target: T1, AXL kinase (Homo sapiens, UniProt P30530)
T1 construct: purchased Carna 08-107
T1 sequence (P30530 473-894 limits assumed): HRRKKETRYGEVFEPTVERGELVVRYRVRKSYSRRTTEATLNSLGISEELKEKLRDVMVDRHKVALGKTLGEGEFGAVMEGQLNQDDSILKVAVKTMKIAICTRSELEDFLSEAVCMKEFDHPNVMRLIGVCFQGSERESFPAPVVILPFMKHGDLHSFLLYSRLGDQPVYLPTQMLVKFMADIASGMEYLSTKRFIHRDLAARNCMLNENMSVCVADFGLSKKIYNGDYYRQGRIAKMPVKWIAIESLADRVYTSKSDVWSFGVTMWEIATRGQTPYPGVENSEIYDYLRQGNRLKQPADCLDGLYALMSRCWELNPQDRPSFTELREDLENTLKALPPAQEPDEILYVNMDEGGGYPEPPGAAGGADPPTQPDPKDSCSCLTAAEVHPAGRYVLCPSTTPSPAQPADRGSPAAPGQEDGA
Test: Inhibitory activity of compound against AXL kinase (HTRF KinEASE)
Format: biochemical
Conditions: AXL enzyme (Carna, 08-107), ATP 15 μM; "<" means below detection limit of the test
Method: a) AXL enzyme (Carna, 08-107) configuration and addition: a 1×enzyme buffer (200 μL of Enzymatic buffer kinase 5×, 10 μL of 500 mM MgCl2, 10 μL of 100 mM DTT and 6.26 μL of 2500 nM SEB are added with […] of H2O, and prepared into 1 ml of 1× enzyme buffer) is used. AXL enzyme is diluted from 33.33 ng/uL to 0.027 ng/μL (1.67×, final conc.=0.016 ng/uL), a BioTek (MultiFlo FX) automatic liquid dispenser is used, and 6 μL of enzyme solution having a 1.67-fold final concentration is added respectively to compound wells and positive control wells; and 6 μL of 1×Enzymatic buffer is added to negative control wells.
b) Compound preparation and addition: the compounds and positive drugs prepared in the examples are diluted from 10 mM to 100 μM by DMSO, and titrated with a compound titrator (Tecan, D300e). The titrated solution is automatically sprayed by the titrator to each well to reach a required concentration, wherein the first concentration is 1 μM, and after ½ log dilution, a total of 8 concentrations are obtained. The resulting mixture is centrifuged at 2500 rpm for 30 s and incubated at room temperature for 15 min.
c) Preparation and addition of ATP and substrate: ATP (Sigma, A7699) is diluted with 1× enzyme buffer from 10 mM to 75 μM (5×), and the final concentration is 15 μM; the substrate TK Substrate 3-biotin (Cisbio, 61TK0BLC) is diluted with 1× enzyme buffer from 500 μM to 5 μM (5×), andthe final concentration is […]; ATP and the substrate are mixed in equal volume to obtain a mixed solution; the mixed solution is added to each well at 4 μL by using a BioTek automatic dispenser; centrifuged at 2500 rpm for 30 s, and reacted at 25° C. for 45 min.
d) Pirparation and addition of detection reagent: Streptavidin-XL665 (Cisbio, 610SAXLG) is diluted with HTRF KinEASE detection buffer (cisbio) from 16.67 μM to 250 nM (4×), and the final concentration is 62.5 nM; TK Antibody-Cryptate (Cisbio) is diluted with HTRF KinEASE detection buffer (cisbio) from 100× to 5×, and the final concentration is 1×; XL665 and Antibody are mixed in equal volume; the mixed solution is added to each well at 10 μL by using the BioTek automatic dispenser, centrifuged at 2500 rpm for 30 s, and reacted at 25° C. for 1 h. After the reaction is completed, the resulting product is detected by a multi-function plate reader HTR1p
GraphPad Prism 5 software log (inhibitor) vs. response-Variable slope is used to fit a dose-response curve to obtain the IC50 value of the compound to the inhibition of AXL kinase.
The calculation formula of the inhibition rate is as follows: […]

SMILES | IC50
CP(C)(=O)c1c(Nc2nc(Nc3ccc4c(c3)CC[C@@H](N3CCCC3)CC4)ncc2Cl)ccc(F)c1Cl [Example 132, (S)-(2-chloro-6-((5-chloro-2-((7-(pyrrolidin-1-yl)-6,7,8,9-tetrahydro-5H-benzo [7]annulen-2-yl)amino)pyrimidin-4-yl)amino)-3-fluorophenyl)dimethyl phosphine oxide] | 2.36 nM
CNC(=O)c1c(Nc2nc(Nc3ccc4c(c3)CC[C@@H](N3CCCC3)CC4)ncc2Cl)ccnc1OC [Example 44, (S)-4-((5-chloro-2-((7-(pyrrolidin-1-yl)-6,7,8,9-tetrahydro-5H-benzo[7]annulen-2-yl)amino)pyrimidin-4-yl)amino)-2-methoxyl-N-methylnicotinamide] | 1.47 nM
CNC(=O)c1ncsc1Nc1nc(Nc2ccc3c(c2)CC[C@@H](N2CCCC2)CC3)ncc1Cl [Example 26, (S)-5-((5-chloro-2-((7-(pyrrolidin-1-yl)-6,7,8,9-tetrahydro-5H-benzo[7]annulen-2-yl)amino)pyrimidin-4-yl)amino)-N-methylthiazole-4-carboxamide] | 7.21 nM
N#CCc1cccc(Nc2nc(Nc3ccc4c(c3)CC[C@@H](N3CCCC3)CC4)ncc2Cl)c1 [Example 11, (S)-2-(3-((5-chloro-2-((7-(pyrrolidin-1-yl)-6,7,8,9-tetrahydro-5H-benzo[7]annulen-2-yl)amino)pyrimidin-4-yl)amino)phenyl)acetonitrile] | 8.18 nM
CN(C)C(=O)c1occc1Nc1nc(Nc2ccc3c(c2)CC[C@@H](N2CCCC2)CC3)ncc1Cl [Example 7, (S)-3-((5-chloro-2-((7-(pyrrolidin-1-yl)-6,7,8,9-tetrahydro-5H-benzo[7]annulen-2-yl)amino)pyrimidin-4-yl)amino)-N,N-dimethylfuran-2-carboxamide] | 7.74 nM
O=S(=O)(c1ccccc1Nc1nc(Nc2ccc3c(c2)CC[C@@H](N2CCCC2)CC3)ncc1Cl)N1CCCC1 [Example 4, (S)-5-chloro-N^2-(7-(pyrrolidin-1-yl)-6,7,8,9-tetrahydro-5H-benzo[7]annulen-2-yl)-N^4-(2-(pyrrolidin-1-ylsulfo)phenyl)pyrimidine-2,4-diamine] | < 0.11 nM
COC(=O)c1ccncc1Nc1nc(Nc2ccc3c(c2)CC[C@@H](N2CCCC2)CC3)ncc1Cl [Example 27] | 19 nM
CNC(=O)c1c(Nc2nc(Nc3ccc4c(c3)CC[C@@H](N3CCCC3)CC4)ncc2Cl)cc[nH]c1=O [Example 42, (S)-4-((5-chloro-2-((7-(pyrrolidin-1-yl)-6,7,8,9-tetrahydro-5H-benzo[7]annulen-2-yl)amino)pyrimidin-4-yl)amino)-N-methyl-2-oxo-1,2-dihydropyridine-3-carboxamide] | 14.6 nM
CN(C)S(=O)(=O)c1cccc(Nc2nc(Nc3ccc4c(c3)CC[C@@H](N3CCCC3)CC4)ncc2Cl)c1 [Example 2, (S)-3-((5-chloro-2-((7-(pyrrolidin-1-yl)-6,7,8,9-tetrahydro-5H-benzo[7]annulen-2-yl)amino)pyrimidin-4-yl)amino)-N,N-dimethyl benzenesulfonamide] | 13.4 nM
CNC(=O)c1cc(P(C)(C)=O)ccc1Nc1nc(Nc2ccc3c(c2)CC[C@@H](N2CCCC2)CC3)ncc1Cl [Example 79, (S)-2-((5-chloro-2-((7-(pyrrolidin-1-yl)-6,7,8,9-tetrahydro-5H-benzo[7]annulen-2-yl)amino)pyrimidin-4-yl)amino)-5-(dimethylphosphoryl)-N-methylbenzamide] | 1.05 nM
CS(=N)(=O)c1ccccc1Nc1nc(Nc2ccc3c(c2)CC[C@@H](N2CCCC2)CC3)ncc1Cl (stereo partly drawn) [Example 50, (2-((5-chloro-2-(((S)-7-(pyrrolidin-1-yl)-6,7,8,9-tetrahydro-5H-benzo[7]annulen-2-yl)amino)pyrimidin-4-yl)amino)phenyl)(imino)(methyl)-λ^6-sulfanone] | 2.16 nM
CNC(=O)c1c(Nc2nc(Nc3ccc4c(c3)CC[C@@H](N3CCCC3)CC4)ncc2Cl)ccc2nccnc12 [Example 48, (S)-6-((5-chloro-2-((7-(pyrrolidin-1-yl)-6,7,8,9-tetrahydro-5H-benzo[7]annulen-2-yl)amino)pyrimidin-4-yl)amino)-N-methylquinoxaline-5-carboxamide] | 0.42 nM

Other lines, results leading:

IC50 | SMILES
2.41 nM | CP(C)(=O)c1cc(C2CC2)ccc1Nc1nc(Nc2ccc3c(c2)CC[C@@H](N2CCCC2)CC3)ncc1Cl [Example 112, (S)-(2-((5-chloro-2-((7-(pyrrolidin-1-yl)-6,7,8,9-tetrahydro-5H-benzo[7]annulen-2-yl)amino)pyrimidin-4-yl)amino)-5-cyclopropylphenyl)dimethyl phosphine oxide]
1.28 nM | Cc1cccc(Nc2nc(Nc3ccc4c(c3)CC[C@@H](N3CCCC3)CC4)ncc2Cl)c1P(C)(C)=O [Example 113, (S)-(2-((5-chloro-2-((7-(pyrrolidin-1-yl)-6,7,8,9-tetrahydro-5H-benzo[7]annulen-2-yl)amino)pyrimidin-4-yl)amino)-6-methylphenyl) dimethyl phosphine oxide]
9.68 nM | Cc1cc(Nc2nc(Nc3ccc4c(c3)CC[C@@H](N3CCCC3)CC4)ncc2Cl)c(P(C)(C)=O)cc1F [Example 129, (S)-(2-((5-chloro-2-((7-(pyrrolidin-1-yl)-6,7,8,9-tetrahydro-5H-benzo[7]annulen-2-yl)amino)pyrimidin-4-yl)amino)-5-fluoro-4-methylphenyl)dimethyl phosphine oxide]
13.1 nM | COc1cc(P(C)(C)=O)c(Nc2nc(Nc3ccc4c(c3)CC[C@@H](N3CCCC3)CC4)ncc2Cl)cc1C#N [Example 136, (S)-(2-((5-chloro-2-((7-(pyrrolidin-1-yl)-6,7,8,9-tetrahydro-5H-benzo[7]annulen-2-yl)amino)pyrimidin-4-yl)amino)-4-cyano-5-methoxyphenyl)dimethyl phosphine oxide]
2.53 nM | COC(C)(C)c1ccc(Nc2nc(Nc3ccc4c(c3)CC[C@@H](N3CCCC3)CC4)ncc2Cl)c(P(C)(C)=O)c1 [Example 139, (S)-(2-((5-chloro-2-((7-(pyrrolidin-1-yl)-6,7,8,9-tetrahydro-5H-benzo[7]annulen-2-yl)amino)pyrimidin-4-yl)amino)-5-(2-methoxypropan-2-yl)phenyl)dimethyl phosphine oxide]
1.82 nM | CP(C)(=O)c1cc(OC2CC2)ccc1Nc1nc(Nc2ccc3c(c2)CC[C@@H](N2CCCC2)CC3)ncc1Cl [Example 128, (S)-(2-((5-chloro-2-((7-(pyrrolidin-1-yl)-6,7,8,9-tetrahydro-5H-benzo[7]annulen-2-yl)amino)pyrimidin-4-yl)amino)-5-cyclopropoxyphenyl)dimethyl phosphine oxide]
12.3 nM | Cc1ccc(P(C)(C)=O)c(Nc2nc(Nc3ccc4c(c3)CC[C@@H](N3CCCC3)CC4)ncc2Cl)c1 [Example 130, (S)-(2-((5-chloro-2-((7-(pyrrolidin-1-yl)-6,7,8,9-tetrahydro-5H-benzo[7]annulen-2-yl)amino)pyrimidin-4-yl)amino)-4-methylphenyl)dimethyl phosphine oxide]
3.1 nM | CP(C)(=O)c1cc(C#N)ccc1Nc1nc(Nc2ccc3c(c2)CC[C@@H](N2CCCC2)CC3)ncc1Cl [Example 54, (S)-4-((5-chloro-2-((7-(pyrrolidin-1-yl)-6,7,8,9-tetrahydro-5H-benzo[7]annulen-2-yl)amino)pyrimidin-4-yl)amino)-3-(dimethylphosphoryl)benzonitrile]
2.91 nM | CP(C)(=O)c1cc(C2(C#N)CC2)ccc1Nc1nc(Nc2ccc3c(c2)CC[C@@H](N2CCCC2)CC3)ncc1Cl [Example 140, (S)-1-(4-((5-chloro-2-((7-(pyrrolidin-1-yl)-6,7,8,9-tetrahydro-5H-benzo[7]annulen-2-yl)amino)pyrimidin-4-yl)amino)-3-(dimethylphosphoryl)phenyl)cyclopropane-1-carbonitrile]
